# What was measured:
# Format in all cases: biochemical
# [1] = target: hXPG (Homo sapiens (Human), UniProt P28715); assay: Enzymatic IC50 assay, FAM-labeled DNA oligomer substrate, fluorescence intensity (XPG); details: hXPG 100 nM, substrate 100 nM, reaction time 120 minutes, 23° C.
# Method: FEN1, EXO1 or XPG enzyme was incubated with compound or vehicle (DMSO) and the FAM-labeled DNA oligomer substrate in a microtiter plate. The stop buffer contains EDTA to stop the enzymatic reaction. The plate is read for fluorescence intensity. The high control (DMSO) with high fluorescence intensity represents no inhibition of enzymatic reaction while the low control (10 μM) with low fluorescence intensity represents full inhibition of enzymatic reaction.
# • FEN1 • hFEN1: 70 pM • Substrate: 100 nM • Reaction time: 20 minutes • EXO1 • hEXO1: 6 nM, Isoforml • Substrate: 30 nM • Reaction time: 60 minutes • XPG • hXPG: 100 nM • Substrate: 100 nM • Reaction time: 120 minutes
# Annealing Buffer: 50 mM Tris-HCl, 50 mM NaCl, 1 mM DTT Assay buffer: 50 mM Tris-HCl pH 8.0, 10 mM MgCl2, 0.01% BSA, 1 mM DTT Stop buffer: 50 mM EDTA in assay buffer Temperature: 23° C. Total volume: 40 μl Controls: • 0% inhibition control: DMSO • 100% inhibition control: 10 μM (final) 5-chloro-3-hydroxy-1,3-dihydroquinazoline-2,4-dione Enzyme Reaction and Detection: • 1. Prepare 25 μM intermediate stock of the substrate by diluting SEQ ID NO:1, SEQ ID NO:2, and SEQ ID NO:3 in annealing buffer, in a PCR tube. • 2. Place the PCR tube on a heat block, heat at 95° C. for 3 minutes, then drop in 0.2° C. increments over 2 minutes, stopping at 25° C. • 3. Remove the tube and let the tube cool at room temperature. • 4. Transfer 10 μL of 3× final concentration test compounds or DMSO to the appropriate wells of a microtiter plate. • 5. Transfer 10 μL of 3× final concentration enzyme in assay buffer or assay buffer alone to the appropriate wells. • 6. Incubate the plate at room temperature for 15 minutes. • 7. Transfer 10 μL of 3× substrate in assay buffer to all the test wells. • 8. Incubate the plate at room temperature for prescribed reaction time. • 9. Centrifuge the plate at 1000 rpm for 1 minute. • 10. Transfer 10 μL of stop buffer to all the test wells. • 11. Centrifuge the plate at 1000 rpm for 1 minute. • 12. Read the plate on a plate reader.
# [2] = target: hFEN1 (Homo sapiens (Human), UniProt P39748); assay: Enzymatic IC50 assay, FAM-labeled DNA oligomer substrate, fluorescence intensity (FEN1); details: hFEN1 70 pM, substrate 100 nM, reaction time 20 minutes, 23° C.
# Method in brief: (§1)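 FEN1, EXO1 or XPG was preincubated 15 min with compound, then the FAM-labelled DNA oligomer substrate was added in Tris-HCl pH 8.0 with 10 mM MgCl2 at 23° C. FEN1 was 70 pM with 100 nM substrate for 20 min, EXO1 6 nM with 30 nM for 60 min, and XPG 100 nM with 100 nM for 120 min. Reactions were EDTA-stopped and read by fluorescence intensity.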
# [3] = target: hEXO1, Isoform1 (Homo sapiens (Human), UniProt Q9UQ84); assay: Enzymatic IC50 assay, FAM-labeled DNA oligomer substrate, fluorescence intensity (EXO1); details: hEXO1 6 nM, substrate 30 nM, reaction time 60 minutes, 23° C.
# Method in brief: as §1
# Chain of hFEN1 (P39748 whole entry): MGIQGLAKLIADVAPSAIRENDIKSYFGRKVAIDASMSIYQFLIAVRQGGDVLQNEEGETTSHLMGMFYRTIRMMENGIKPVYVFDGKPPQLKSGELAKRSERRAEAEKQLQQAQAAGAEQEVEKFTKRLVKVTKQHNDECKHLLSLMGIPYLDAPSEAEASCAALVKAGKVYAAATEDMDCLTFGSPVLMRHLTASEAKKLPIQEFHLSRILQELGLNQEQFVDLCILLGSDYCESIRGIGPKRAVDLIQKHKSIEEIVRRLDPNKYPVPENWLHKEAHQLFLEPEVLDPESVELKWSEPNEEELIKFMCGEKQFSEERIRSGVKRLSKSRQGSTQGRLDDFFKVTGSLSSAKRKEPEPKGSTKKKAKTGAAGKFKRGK
# Chain of hEXO1, Isoform1 (Q9UQ84 whole entry, canonical isoform): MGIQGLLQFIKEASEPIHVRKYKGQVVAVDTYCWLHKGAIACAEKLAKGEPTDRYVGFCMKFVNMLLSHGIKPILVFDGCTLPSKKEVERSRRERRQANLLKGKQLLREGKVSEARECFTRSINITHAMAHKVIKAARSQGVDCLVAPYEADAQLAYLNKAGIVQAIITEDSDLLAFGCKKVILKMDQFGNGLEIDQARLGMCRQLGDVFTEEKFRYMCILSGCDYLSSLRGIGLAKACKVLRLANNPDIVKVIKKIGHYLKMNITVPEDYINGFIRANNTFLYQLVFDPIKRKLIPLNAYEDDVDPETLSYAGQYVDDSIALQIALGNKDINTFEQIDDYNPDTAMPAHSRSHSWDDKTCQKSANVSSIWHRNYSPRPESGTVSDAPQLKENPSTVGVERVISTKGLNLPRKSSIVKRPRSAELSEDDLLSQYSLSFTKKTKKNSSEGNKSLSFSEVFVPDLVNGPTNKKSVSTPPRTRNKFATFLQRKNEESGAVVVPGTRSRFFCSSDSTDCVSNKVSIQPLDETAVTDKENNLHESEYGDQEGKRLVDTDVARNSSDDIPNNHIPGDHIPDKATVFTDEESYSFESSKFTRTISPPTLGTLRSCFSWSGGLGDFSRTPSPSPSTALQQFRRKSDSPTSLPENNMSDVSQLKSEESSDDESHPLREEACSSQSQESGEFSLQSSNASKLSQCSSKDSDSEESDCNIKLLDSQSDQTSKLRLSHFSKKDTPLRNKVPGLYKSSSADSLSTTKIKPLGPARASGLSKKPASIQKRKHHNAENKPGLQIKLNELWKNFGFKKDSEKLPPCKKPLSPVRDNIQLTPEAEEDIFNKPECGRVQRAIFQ
# Chain of hXPG (P28715 whole entry): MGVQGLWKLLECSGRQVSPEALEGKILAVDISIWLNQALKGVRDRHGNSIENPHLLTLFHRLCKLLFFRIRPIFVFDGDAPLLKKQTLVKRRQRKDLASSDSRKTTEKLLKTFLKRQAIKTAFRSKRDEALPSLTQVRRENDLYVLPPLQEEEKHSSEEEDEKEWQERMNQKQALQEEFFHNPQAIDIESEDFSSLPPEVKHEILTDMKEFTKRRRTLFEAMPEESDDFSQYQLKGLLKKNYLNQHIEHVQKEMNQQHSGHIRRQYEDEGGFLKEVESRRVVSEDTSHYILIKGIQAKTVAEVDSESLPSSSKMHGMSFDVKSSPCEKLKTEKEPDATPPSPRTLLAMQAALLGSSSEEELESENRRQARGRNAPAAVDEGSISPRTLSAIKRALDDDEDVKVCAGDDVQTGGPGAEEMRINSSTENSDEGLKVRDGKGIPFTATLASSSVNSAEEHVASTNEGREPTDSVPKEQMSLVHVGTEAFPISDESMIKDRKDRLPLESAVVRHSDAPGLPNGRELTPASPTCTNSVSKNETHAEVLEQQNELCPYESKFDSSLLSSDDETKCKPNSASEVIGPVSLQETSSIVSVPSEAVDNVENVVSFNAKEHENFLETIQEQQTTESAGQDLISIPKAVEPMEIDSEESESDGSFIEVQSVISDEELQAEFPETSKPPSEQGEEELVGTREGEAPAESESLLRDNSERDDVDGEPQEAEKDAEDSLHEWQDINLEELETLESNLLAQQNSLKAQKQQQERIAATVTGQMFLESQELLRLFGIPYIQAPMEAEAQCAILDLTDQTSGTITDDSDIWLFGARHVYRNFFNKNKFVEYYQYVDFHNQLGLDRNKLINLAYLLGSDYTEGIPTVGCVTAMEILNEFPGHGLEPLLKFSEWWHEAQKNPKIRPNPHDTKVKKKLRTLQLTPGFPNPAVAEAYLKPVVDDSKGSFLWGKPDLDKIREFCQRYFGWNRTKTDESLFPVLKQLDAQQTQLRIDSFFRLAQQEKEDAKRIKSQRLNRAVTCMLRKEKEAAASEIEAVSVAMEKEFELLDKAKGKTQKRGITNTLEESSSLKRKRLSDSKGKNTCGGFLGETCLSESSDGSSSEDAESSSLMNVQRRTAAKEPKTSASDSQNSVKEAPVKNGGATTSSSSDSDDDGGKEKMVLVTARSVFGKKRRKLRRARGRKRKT
Compound,IC50 [1] [µM],IC50 [2] [µM],IC50 [3] [µM]
"O=C(O)c1c(O)c(=O)n(Cc2cn(-c3ccc4nc[nH]c4c3)nn2)c2ccsc12 [Example 149, 4-{[1-(1H-benzo[d]imidazol-6-yl)-1H-1,2,3-triazol-4-yl]methyl}-6-hydroxy-5-oxo-4,5-dihydrothieno[3,2-b]pyridine-7-carboxylic acid]",0.75 to 2.25,< 0.2,2.25 to 10
"O=C(O)c1c(O)c(=O)n(Cc2ccc(Oc3ccccc3)cc2)c2ccsc12 [Example 81, 6-hydroxy-5-oxo-4-(4-phenoxybenzyl)-4,5-dihydrothieno[3,2-b]pyridine-7-carboxylic acid]",2.25 to 10,0.25 to 0.75,2.25 to 10
"O=C(O)c1c(O)c(=O)n(Cc2cnn(Cc3cccc4nonc34)c2)c2ccsc12 [Example 140, 4-{[1-(benzo[c][1,2,5]oxadiazol-4-ylmethyl)-1H-pyrazol-4-yl]methyl}-6-hydroxy-5-oxo-4,5-dihydrothieno[3,2-b]pyridine-7-carboxylic acid]",2.25 to 10,< 0.2,2.25 to 10
"O=C(O)c1c(O)c(=O)n(Cc2cnn(Cc3ccccc3)c2)c2ccsc12 [Example 122, 4-[(1-benzyl-1H-pyrazol-4-yl)methyl]-6-hydroxy-5-oxo-4,5-dihydrothieno[3,2-b]pyridine-7-carboxylic acid]",0.75 to 2.25,< 0.2,2.25 to 10
"O=C(O)c1c(O)c(=O)n(Cc2cnn(Cc3ccc4nonc4c3)c2)c2ccsc12 [Example 141, 4-{[1-(benzo[c][1,2,5]oxadiazol-5-ylmethyl)-1H-pyrazol-4-yl]methyl}-6-hydroxy-5-oxo-4,5-dihydrothieno[3,2-b]pyridine-7-carboxylic acid]",2.25 to 10,< 0.2,0.75 to 2.25
"CS(=O)(=O)Nc1cccc(Cn2c(=O)c(O)c(C(=O)O)c3sccc32)c1 [Example 78, 6-hydroxy-4-[3-(methylsulfonamido)benzyl]-5-oxo-4,5-dihydrothieno[3,2-b]pyridine-7-carboxylic acid]",2.25 to 10,0.25 to 0.75,0.75 to 2.25
"N#Cc1cccc(Cn2cc(Cn3c(=O)c(O)c(C(=O)O)c4sccc43)cn2)c1 [Example 128, 4-{[1-(3-cyanobenzyl)-1H-pyrazol-4-yl]methyl}-6-hydroxy-5-oxo-4,5-dihydrothieno[3,2-b]pyridine-7-carboxylic acid]",2.25 to 10,< 0.2,2.25 to 10
"O=C(O)c1c(O)c(=O)n(Cc2cnn(CC(=O)N3CC[C@H](O)C3)c2)c2ccsc12 [Example 154, (S)-6-hydroxy-4-({1-[2-(3-hydroxypyrrolidin-1-yl)-2-oxoethyl]-1H-pyrazol-4-yl}methyl)-5-oxo-4,5-dihydrothieno[3,2-b]pyridine-7-carboxylic acid]",> 10,0.25 to 0.75,> 10
O=C(O)c1c(O)c(=O)n(Cc2cnn(CC(=O)N3CCOCC3)c2)c2ccsc12 [Example 156],2.25 to 10,< 0.2,2.25 to 10
"N#Cc1ccc(Cn2cc(Cn3c(=O)c(O)c(C(=O)O)c4sccc43)cn2)cc1 [Example 127, 4-{[1-(4-cyanobenzyl)-1H-pyrazol-4-yl]methyl}-6-hydroxy-5-oxo-4,5-dihydrothieno[3,2-b]pyridine-7-carboxylic acid]",2.25 to 10,< 0.2,0.75 to 2.25
"NC(=O)Cn1cc(Cn2c(=O)c(O)c(C(=O)O)c3sccc32)cn1 [Example 136, 4-{[1-(2-amino-2-oxoethyl)-1H-pyrazol-4-yl]methyl}-6-hydroxy-5-oxo-4,5-dihydrothieno[3,2-b]pyridine-7-carboxylic acid]",> 10,< 0.2,2.25 to 10
"CS(=O)(=O)Nc1ccc(-n2cc(Cn3c(=O)c(O)c(C(=O)O)c4sccc43)cn2)cc1 [Example 117, 6-hydroxy-4-({1-[4-(methylsulfonamido)phenyl]-1H-pyrazol-4-yl}methyl)-5-oxo-4,5-dihydrothieno[3,2-b]pyridine-7-carboxylic acid]",0.25 to 0.75,< 0.2,0.25 to 0.75
"Nc1ccc(Cn2c(=O)c(O)c(C(=O)O)c3sccc32)cc1 [Example 53, 4-(4-aminobenzyl)-6-hydroxy-5-oxo-4,5-dihydrothieno[3,2-b]pyridine-7-carboxylic acid]",2.25 to 10,< 0.2,2.25 to 10
"O=C(O)c1c(O)c(=O)n(Cc2cnn(Cc3cccnc3)c2)c2ccsc12 [Example 120, 6-hydroxy-5-oxo-4-{[1-(pyridin-3-ylmethyl)-1H-pyrazol-4-yl]methyl}-4,5-dihydrothieno[3,2-b]pyridine-7-carboxylic acid]",2.25 to 10,< 0.2,2.25 to 10
"O=C(O)c1c(O)c(=O)n(Cc2nnc(-c3ccccc3)o2)c2ccsc12 [Example 85, 6-hydroxy-5-oxo-4-[(5-phenyl-1,3,4-oxadiazol-2-yl)methyl]-4,5-dihydrothieno[3,2-b]pyridine-7-carboxylic acid]",0.75 to 2.25,0.25 to 0.75,2.25 to 10
"O=C(O)c1c(O)c(=O)n(Cc2cnn(Cc3ccccn3)c2)c2ccsc12 [Example 119, 6-hydroxy-5-oxo-4-{[1-(pyridin-2-ylmethyl)-1H-pyrazol-4-yl]methyl}-4,5-dihydrothieno[3,2-b]pyridine-7-carboxylic acid]",> 10,< 0.2,2.25 to 10
"O=C(O)c1c(O)c(=O)n(Cc2cnn(Cc3cn4ccncc4n3)c2)c2ccsc12 [Example 125, 6-hydroxy-4-{[1-(imidazo[1,2-a]pyrazin-2-ylmethyl)-1H-pyrazol-4-yl]methyl}-5-oxo-4,5-dihydrothieno[3,2-b]pyridine-7-carboxylic acid]",2.25 to 10,< 0.2,0.75 to 2.25
"CS(=O)(=O)Nc1ccc(Cn2c(=O)c(O)c(C(=O)O)c3sccc32)cc1 [Example 16, 6-hydroxy-4-[[4-(methanesulfonamido)phenyl]methyl]-5-oxo-thieno[3,2-b]pyridine-7-carboxylic acid]",2.25 to 10,< 0.2,0.25 to 0.75
"CS(=O)(=O)c1cccc(Cn2c(=O)c(O)c(C(=O)O)c3sccc32)c1 [Example 63, 6-hydroxy-4-[3-(methylsulfonyl)benzyl]-5-oxo-4,5-dihydrothieno[3,2-b]pyridine-7-carboxylic acid]",2.25 to 10,0.75 to 2.25,2.25 to 10
"CS(=O)(=O)c1ccc(Cn2cc(Cn3c(=O)c(O)c(C(=O)O)c4sccc43)cn2)cc1 [Example 130, 6-hydroxy-4-({1-[4-(methylsulfonyl)benzyl]-1H-pyrazol-4-yl}methyl)-5-oxo-4,5-dihydrothieno[3,2-b]pyridine-7-carboxylic acid]",2.25 to 10,< 0.2,2.25 to 10
CN(C(=O)Cn1cc(Cn2c(=O)c(O)c(C(=O)O)c3sccc32)cn1)c1ccccc1 [Example 155],2.25 to 10,< 0.2,2.25 to 10
"Cc1cc(Cn2c(=O)c(O)c(C(=O)O)c3sccc32)on1 [Example 83, 6-hydroxy-4-[(3-methylisoxazol-5-yl)methyl]-5-oxo-4,5-dihydrothieno[3,2-b]pyridine-7-carboxylic acid]",> 10,0.25 to 0.75,> 10
"O=C(O)c1c(O)c(=O)n(Cc2cnc[nH]2)c2ccsc12 [Example 75, 4-[(1H-imidazol-5-yl)methyl]-6-hydroxy-5-oxo-4,5-dihydrothieno[3,2-b]pyridine-7-carboxylic acid]",> 10,0.75 to 2.25,2.25 to 10
"O=C(O)c1c(O)c(=O)n(Cc2noc(-c3ccccc3)n2)c2ccsc12 [Example 88, 6-hydroxy-5-oxo-4-[(5-phenyl-1,2,4-oxadiazol-3-yl)methyl]-4,5-dihydrothieno[3,2-b]pyridine-7-carboxylic acid]",2.25 to 10,0.75 to 2.25,0.25 to 0.75

# — patent US11584755B2 (IDEAYA BIOSCIENCES, INC., priority 2017, dated 2023)
